Laboratory results: PubChem BioAssay AID179 (DTP/NCI, 2004)
Calls of active or inactive are those of the source.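 The calls were made as follows: active = compounds giving half or more protection of infected cells from virus-caused growth loss, again on retest; inactive = the rest.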

Tested on: CEM cells HIV-1 protection, formazan growth assay
Experiment: NCI AIDS Antiviral Assay
Details: for IC50: measured here: growth of uninfected CEM cells
In short: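 Screen of anti-HIV-1 activity in human CEM cells using a formazan-based growth measurement at five drug concentrations. Hits with 50% or greater protection were repeated, and confirmation required reproducible complete protection.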

SMILES | EC50 [µM] | IC50 [µM] | outcome
CC(C)(C)c1cc(C=C(C#N)C#N)cc(C(C)(C)C)c1O | > 20 | 0.372 | –
O=[N+]([O-])c1cc([As](=O)(O)O)ccc1S(=O)(=O)O | > 200 | > 200 | –
Cc1ccc(/C=C2/N=C(N/N=C\C(O)C(O)C(O)CO)NC2=O)cc1 (centres undefined) | > 200 | 110 | inactive
COC1=C(C)C(=O)C2=C(C1=O)C(CO)N1C(C#N)C3CC4C(C1C2N1CCOC41)N3C (centres undefined) | > 1.17 | 0.00575 | –
COc1c(Cl)cc(C(=O)c2cc(Cl)c(OC)c(C(=O)O)c2)cc1C(=O)O | > 912 | > 912 | –
Cc1nc(C)c(C(=O)NNC(=O)C[n+]2ccccc2)cc1C(=O)NNC(=O)C[n+]1ccccc1 | > 200 | > 200 | –
COC(=O)C1C2C/C(=N\O)C1C2 (centres undefined) | > 501 | > 501 | –
COC(=O)[C@@H]1Cc2ccc(OC)c(c2)OCCC(=O)N1 | > 200 | > 200 | –
COc1ccc(C=C(Cl)Cl)cc1OC | > 200 | > 200 | –
CC(C)(c1ccc(C=O)o1)c1ccc(C(C)(C)c2ccc(C=O)o2)o1 | – | – | inactive
COc1ccc(C2=Nn3c(nc4sc(-c5ccccc5)cc4c3=O)SC2)cc1 | > 200 | > 200 | –
Cc1cc(O)c2c3c1C(=O)Oc1c(CO)c(O)c(C(=O)O)c(c1O3)C=NN=Cc1c3c(c(CO)c(O)c1C(=O)O)OC(=O)c1c(C)cc(O)c(c1O3)C=NN=C2 | – | – | inactive
CCc1cc(Cc2cc(CC)c(NC(=O)C3=CC(=O)CC(c4ccc(OC)cc4)O3)c(CC)c2Cl)c(Cl)c(CC)c1NC(=O)C1=CC(=O)CC(c2ccc(OC)cc2)O1 (centres undefined) | – | – | inactive
CNC(=O)NCCCC(NC(C)=O)C(=O)NCc1ccccc1 (centres undefined) | > 112 | > 112 | –
CC1C(c2ccc(F)cc2)c2cc3c(cc2OC1N1CCCC1)OCO3 (centres undefined) | > 200 | 129 | –
N#CC(c1nc2ccccc2nc1Cl)S(=O)(=O)c1ccccc1 (centres undefined) | > 105 | 6.76 | –
CCCCN(C)CC(C(C)=O)C(c1ccccc1)c1c(O)c2ccccc2oc1=O (centres undefined) | > 67.6 | 60.3 | –
O=c1c(-c2ccc(O)cc2)coc2cc(OC3OC(CO)C(O)C(O)C3O)cc(O)c12 (centres undefined) | > 200 | > 200 | –
CCN(CC)CC1CN=C(N)O1 (centres undefined) | > 200 | > 200 | –
COc1cc([N+](=O)[O-])c(OC)c2c(=O)[nH]c(=O)[nH]c12 | > 47.9 | > 47.9 | –
CC(=O)[O-].COc1cccc(/C=N\[N-]C(=O)c2ccncc2)c1.[Co+2].[OH3+].[OH3+].c1ccncc1 | > 100 | 57.5 | –
CC(Sc1ccccc1)C(=O)N1CCCC1 (centres undefined) | > 100 | > 100 | –

SMILES | EC50 [µM] | IC50 [µM] | outcome
CC(=O)Oc1c(N2CCCCC2)c(C(=O)c2ccccc2)c(O)c2ccn(N(C)C)c12 | > 200 | 8.32 | –
COc1ccc2cc(C(=O)NCCc3ccccc3)ccc2c1OC | > 200 | > 200 | –
CN(C(=O)c1ccc(Cl)s1)C(=S)N(C)C(=O)c1ccc(Cl)s1 | > 120 | 115 | –
O=C(O)CCC(=O)NC(c1ccccc1)c1ccccc1 | > 200 | > 200 | –
COc1ncnc2c1ncn2C1CC(O)C(CO)(C(F)(F)F)O1 (centres undefined) | > 200 | > 200 | –
CS(=O)(=O)ON1C(=O)c2ccc(N)cc2C1=O | > 372 | 282 | –
O=S(=O)(c1ccccc1)N1CC2(CN(S(=O)(=O)c3ccccc3)c3ccccc31)CN(S(=O)(=O)c1ccccc1)c1ccccc1N(S(=O)(=O)c1ccccc1)C2 | > 200 | > 200 | –
CCc1c(C)c(SC)n(C)c(=O)c1C#N | > 200 | 69.2 | –
COc1cc(Cl)c2c3c(c(C(C)=O)oc13)CCC2 | – | – | inactive
CC(=O)OC1C(O)COC(O[C@H]2CC[C@]34C[C@]35CC[C@]3(C)C([C@@]6(C)CC[C@@H](C(C)(C)O)O6)[C@@H](O)C[C@@]3(C)C5C[C@H](OC3OCC(O)C(O)C3O)[C@H]4C2(C)C)C1OC1OCC(O)C(O)C1O (some centres undefined) | > 200 | > 200 | –
CC(NC1=NCCO1)c1cccs1 (centres undefined) | > 200 | 138 | –
[N-]=[N+]=NC1C(O)C(O)C(O)C(O)C1O (centres undefined) | > 603 | > 603 | –
O=[N+]([O-])c1ccc(Nc2ccc(Cl)cc2)c2nonc12 | > 43.7 | 15.1 | –
Oc1cc(O)c2c(c1)O[C@H](c1cc(O)c(O)c(O)c1)[C@H](O)C2 | > 200 | 0.692 | –
CCCCCCCCCCCCCCCC(=O)OC1C(O)C(O)C(O)C(O)C12CO2 (centres undefined) | > 20 | 7.08 | –
OC12C=CC(CCCC1)O2 (centres undefined) | > 200 | 12.3 | –
O=[N+]([O-])c1nccn1CCC[n+]1cccc2ccccc21 | > 200 | > 200 | –
CSC(=S)NNC(=O)c1ccncc1 | > 12 | > 12 | –
N/C(=N/N=C/c1cccnc1)NO | – | – | inactive
O=C1CCCC2=C1CC1=C(CCCC1=O)N2c1ccccc1 | > 100 | > 100 | –
N#Cc1[nH]c(=O)n(-c2ccccc2)c1N | > 200 | > 200 | –
N/N=C(\c1nc2ccc([N+](=O)[O-])cc2[nH]c1=O)C(O)c1ccc(Cl)c(Cl)c1 (centres undefined) | > 339 | 145 | –

SMILES | EC50 [µM] | IC50 [µM] | outcome
N#CC1(C#N)N[C@@H](c2ccsc2)[C@H]2C(=O)N(c3ccccc3)C(=O)[C@H]21 | > 200 | 53.7 | –
O=c1cc(-c2cccs2)ss1 | 77.6 | 110 | –
CCOc1cc2c(cc1O)C(=O)C[C@@H]1[C@@H]2CC[C@]2(C)[C@@H](O)CC[C@@H]12 | > 2 | 0.0794 | –
NCCNCCNCc1c2ccccc2c(CNCCNCCN)c2ccccc12 | 5.89 | 39.8 | –
CCN(CC)CCCCC1CCN(CC(=O)N2CC(C)C(=O)Nc3ccccc32)CC1 (centres undefined) | > 251 | > 251 | –
Nc1ccc(S(=O)(=O)Cc2ccc(C(=O)O)cc2[N+](=O)[O-])cc1 | > 107 | > 107 | –
Cc1ccccc1NC(=O)C(=O)CC(=O)c1c(C)n([O-])c2ccccc2[n+]1=O | > 3.8 | > 3.8 | –
Nc1nc(-c2ccco2)cc(-c2ccc(CO)o2)n1 | > 195 | 107 | –
N#C/C(C(=O)Nc1ccccc1)=C(/N)N1CCCCC1 | > 200 | > 200 | –
COc1ccccc1C1OC(c2ccccc2OC)C2CCN(C)C2(C)O1 (centres undefined) | > 200 | > 200 | –
COC(=O)c1ccc(C)cc1CC1Cc2cc(C)ccc2C1=O (centres undefined) | > 200 | > 200 | –
N#Cc1sc2c(c1OC(=O)c1ccccc1)c(=O)n(-c1ccccc1)c(=S)n2-c1ccccc1 | > 200 | 2.34 | –
Cc1ccc(NC(=O)c2ccccc2)c(=O)o1 | > 200 | > 200 | –
CCOC(=O)/C=C1\c2ccccc2C(=O)N1CC(=O)OCC | – | – | inactive
COc1ccc2c(c1)C(=O)CC(c1ccccc1)O2 (centres undefined) | > 200 | > 200 | –
Cc1ccc2c(n1)C(N1CCC(C)CC1)=CC(=O)C2=O | – | – | inactive
CCC(NC(C)c1ccccc1)C(O)c1ccc(OCc2ccccc2)c(OCc2ccccc2)c1 (centres undefined) | > 200 | 10.7 | –
O=C(/C=C/c1cccc2ccccc12)c1ccccc1[N+](=O)[O-] | > 200 | 3.24 | –
CCOC(C[Se]CC(OCC)OCC)OCC | 37.2 | 112 | –
Cc1nc(N)c2cnn(C)c2n1 | > 1510 | 708 | –
O=C(/C=C/c1ccc(Cl)c(Cl)c1)CCN1CCN(CCC(=O)/C=C/c2ccc(Cl)c(Cl)c2)CC1 | > 200 | 1.91 | –
Cc1ccc(C(=O)Nc2ccc(S(=O)(=O)O)c3cc(S(=O)(=O)O)cc(S(=O)(=O)O)c23)cc1NC(=O)Nc1cc(C(=O)Nc2ccc(S(=O)(=O)O)c3cc(S(=O)(=O)O)cc(S(=O)(=O)O)c23)ccc1C | 138 | 209 | –

SMILES | EC50 [µM] | IC50 [µM] | outcome
COc1cc([C@@H]2c3cc4c(c(O)c3C[C@H]3COC(=O)[C@@H]32)OCO4)cc(OC)c1OC | > 0.02 | 0.00309 | –
COC(=O)c1c([N+](=O)[O-])ncn1[C@H]1OC[C@@H](OC(C)=O)[C@@H](OC(C)=O)[C@@H]1OC(C)=O | > 200 | > 200 | –
CCOC(=O)c1nc(SC)sc1NC(=O)c1ccccc1Cl | > 200 | 9.55 | –
CCOP(=O)(OCC)/C(F)=C/c1ccc(F)cc1 | – | – | inactive
C[N+](C)=C1C=CC(=C2C=C(c3ccccc3)Oc3ccccc32)C=C1 | > 200 | 1.17 | –
COC(=O)c1nc(NC#N)[nH]c(=O)c1C | > 34.7 | > 34.7 | –
CCN(CC)CCNc1c(OC)c(OC)cc2nccnc12 | > 200 | 64.6 | –
C[C@]12CCC[C@H](Cl)C1(O)C[C@H](C(=O)O)CC2 (some centres undefined) | – | – | inactive
CN(C)/N=C(\CCN1CCCC1)CC(c1ccccc1)c1c(O)c2ccccc2oc1=O (centres undefined) | > 39.8 | > 39.8 | –
CCOC(=O)NC(C(=O)OCC)(N1CCN(c2cc3c(cc2F)c(=O)c(C(=O)O)cn3CC)CC1)C(F)(F)F (centres undefined) | > 200 | 145 | –
COc1ccc(/C(C)=N/NC(=O)c2ccncc2)c(OC)c1 | > 417 | 363 | –
Cc1nc2c(nc1C)C(=O)C(N)=CC2=O | – | – | inactive
Cn1c2ccccc2c(=O)c2c(O)cc3c(c21)N=CC(C)(C)O3 | – | – | inactive
COc1ccc(C2CC(c3ccc4ccccc4c3O)=NN2)cc1OC (centres undefined) | > 200 | 42.7 | –
Cc1c2n(c3ccccc13)CC1CON(C)C21 (centres undefined) | > 1100 | 355 | –
O=c1c2c3c(sc2nc2n1N=C(c1ccc([N+](=O)[O-])cc1)CS2)CCCC3 | > 200 | > 200 | –
C=CCC[P+](c1ccccc1)(c1ccccc1)c1ccccc1 | > 200 | 2.24 | –
COC(=O)C1C(C(=O)OC)C2(OC)c3ccccc3-c3ccccc3C12 (centres undefined) | > 200 | 21.4 | –
COC(=O)C1=NC(=S)NC(c2ccccc2)C1c1nc2ccccc2s1 (centres undefined) | – | – | inactive
O=S1Nc2c(Cl)cc(Cl)c(Cl)c2S1 (centres undefined) | > 129 | > 129 | –
N.N.N.N.O=N[O-].O=N[O-].[Cl-].[Co+3] | – | – | inactive
N#CC(Sc1ccccc1)c1ccccc1 (centres undefined) | > 44.7 | > 44.7 | –
